The subject of assay [1] is MV4-11 cells. Nature of the assay: MV4-11 6-day cell growth CTG (CellTiter-Glo) assay. The following applies: Homo sapiens, MV4-11, 144 h, 6 days, read-out: (c) MLL/WDR5 cell proliferation assay//MLL/WDR5 proliferation MV4:11 Qualified AC50. It counts as cell-based. In a few lines: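 Exponentially growing MV4-11 AML cells (RPMI 1640, 10% FBS) seeded at 300 cells/well with 12-point 1:3 compound dilutions, top final concentration 50 μM. Viability read by CellTiter-Glo luminescence after 6 days at 37° C; % inhibition vs DMSO-only wells fitted to dose-response for IC50.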
In general terms: Cellular ATP, detected with luciferase, serves as a proxy for viable cell number.

In assay [2] the target is WDR5 (Homo sapiens, UniProt P61964). Nature of the assay: WDR5 HTRF binding assay. Particulars: read-out: (a) WDR5 HTRF Pep Val v.1[Inhibitor/IC50]Qualified AC50. In a few lines:
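6 nM WDR5 and 20 nM biotin-MLL1 WIN peptide (3762-3773) were incubated with compound (12-point, 3-fold dilutions) in pH 7.5 Hepes/NaCl/DTT buffer for 20 min at rt. Streptavidin-APC plus anti-His-Eu were then added for 1 hr, with HTRF read at 665/615. IC50 was fit from control-normalized activity; the counter assay used 15 nM biotin-PEG-His peptide.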
Background: TR-FRET usually uses a lanthanide donor and a delayed reading to cut background.

Assay [3] concerns the target wild type MLL1 four-member complex (MLL1-4C) (Homo sapiens, UniProt P61964). Nature of the assay: MLL1 LC-MS assay (SAH production). It counts as biochemical. The following applies: read-out: (b) MLL LCMS Peptide Val.v.1 Qualified AC50. In a few lines: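 MLL1-4C (30 nM final) was preincubated 20 min with compound (3-fold dilutions, 8 or 12 points) and SAM in Tris-HCl pH 8.0 buffer. H3K4me0 peptide (histone H3[1-21]-biotin) was then added, giving final 2.5 μM SAM and 10 μM substrate, and reactions ran 120 min at rt. After TFA/d4-SAH quench, SAH was quantified by LC-MS/MS and IC50 fitted from control-normalised activity.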

pIC50: −log10 of the molar value.

For the compound `CNc1nccn1Cc1cc(-c2cc(CO)cnc2Cl)c2ccn(Cc3ccc(OC)cc3)c(=O)c2c1` [Example 105, 5-(2-chloro-5-(hydroxymethyl)pyridin-3-yl)-2-(4-methoxybenzyl)-7-((2-(methylamino)-1H-imidazol-1-yl)methyl)isoquinolin-1(2H)-one], the AC50 in assay [1] and in assay [3] was 10 to 1000 nM throughout. Also, the pIC50 in assay [2] is 6.00 to 8.00.
In the case of `CCOc1cc([C@H](C)N2CCc3c(cc(CCN(C)CC)cc3-c3cn(C)c(=O)cc3C(F)(F)F)C2=O)ncc1C#N` [Example 182, (S)-4-ethoxy-6-(1-(7-(2-(ethyl(methyl)amino)ethyl)-5-(1-methyl-6-oxo-4-(trifluoromethyl)-1,6-dihydropyridin-3-yl)-1-oxo-3,4-dihydroisoquinolin-2(1H)-yl)ethyl)nicotinonitrile], the AC50 in assay [1] and in assay [3] was 10 to 1000 nM each time. The pIC50 in assay [2] is over 8.00.
Turning to `CNc1nccn1Cc1cc(CN2CC(F)(F)C2)c2c(c1)C(=O)N([C@@H](C)c1cnc(F)c(OC)c1)CC2` [Example 34, (S)-5-((3,3-difluoroazetidin-1-yl)methyl)-2-(1-(6-fluoro-5-methoxypyridin-3-yl)ethyl)-7-((2-(methylamino)-1H-imidazol-1-yl)methyl)-3,4-dihydroisoquinolin-1(2H)-one], the AC50 in assay [1] and in assay [3] was 10 to 1000 nM throughout. In addition, the pIC50 in assay [2] was 6.00 to 8.00.
Turning to `CCOc1cc(CN2CCc3c(cc(CCN(C)CC)cc3-c3cc(N)cnc3C)C2=O)ncc1C#N` [Example 201, 6-((5-(5-amino-2-methylpyridin-3-yl)-7-(2-(ethyl(methyl)amino)ethyl)-1-oxo-3,4-dihydroisoquinolin-2(1H)-yl)methyl)-4-ethoxynicotinonitrile], the AC50 in assay [1] and in assay [3] was 10 to 1000 nM each time. Besides, in assay [2], the pIC50 was 6.00 to 8.00.
For `CNc1nccn1Cc1cc(CN2CCOCC2)c2c(c1)C(=O)N([C@@H](C)c1cnc(F)c(OC)c1)CC2` [Example 8, (S)-2-(1-(6-fluoro-5-methoxypyridin-3-yl)ethyl)-7-((2-(methylamino)-1H-imidazol-1-yl)methyl)-5-(morpholinomethyl)-3,4-dihydroisoquinolin-1(2H)-one], the AC50 in assay [1] and in assay [3] was 10 to 1000 nM throughout. The pIC50 in assay [2] is over 8.00.
As for `CNc1nccn1Cc1cc(CN(C)C)c2c(c1)C(=O)N([C@@H](C)c1cnc(F)c(OC)c1)CC2` [Example 29, (S)-5-((dimethylamino)methyl)-2-(1-(6-fluoro-5-methoxypyridin-3-yl)ethyl)-7-((2-(methylamino)-1H-imidazol-1-yl)methyl)-3,4-dihydroisoquinolin-1(2H)-one], the AC50 in assay [1] and in assay [3] was 10 to 1000 nM each time. Besides, the pIC50 in assay [2] is 6.00 to 8.00.
With `CCOc1cc([C@H](C)N2CCc3c(cc(CCN(C)CC)cc3-c3c[nH]nc3C)C2=O)ncc1C#N` [Example 116, (S)-4-ethoxy-6-(1-(7-(2-(ethyl(methyl)amino)ethyl)-5-(3-methyl-1H-pyrazol-4-yl)-1-oxo-3,4-dihydroisoquinolin-2(1H)-yl)ethyl)nicotinonitrile], the AC50 in assay [1] and in assay [3] was 10 to 1000 nM in each case. Moreover, the pIC50 in assay [2] is over 8.00.
Turning to `CCOc1cc([C@H](C)N2CCc3c(cc(CCN(C)CC)cc3-c3cn(C)c(=O)cc3C(F)F)C2=O)ncc1C#N` [Example 149, (S)-6-(1-(5-(4-(difluoromethyl)-1-methyl-6-oxo-1,6-dihydropyridin-3-yl)-7-(2-(ethyl(methyl)amino)ethyl)-1-oxo-3,4-dihydroisoquinolin-2(1H)-yl)ethyl)-4-ethoxynicotinonitrile], the AC50 in assay [1] and in assay [3] was 10 to 1000 nM in each case. Moreover, the pIC50 in assay [2] is 6.00 to 8.00.
Regarding `CCOc1cc(CN2CCc3c(cc(CCN(C)CC)cc3-c3ccc(F)nc3C)C2=O)ncc1C#N` [Example 130, 4-ethoxy-6-((7-(2-(ethyl(methyl)amino)ethyl)-5-(6-fluoro-2-methylpyridin-3-yl)-1-oxo-3,4-dihydroisoquinolin-2(1H)-yl)methyl)nicotinonitrile], the AC50 in assay [1] and in assay [3] was 10 to 1000 nM in each case. In addition, the pIC50 in assay [2] is over 8.00.
With `CNc1nccn1Cc1cc2c(c(N3CC(OC)C3)c1)CCN([C@@H](C)c1cc(OC)c(F)cn1)C2=O` (single isomer, unassigned) [Example 90], the AC50 in assay [1] and in assay [3] was 10 to 1000 nM in each case. For the same compound, in assay [2], the pIC50 was 6.00 to 8.00.
`CCOc1cc([C@H](C)N2CCc3c(cc(CCN(C)CCO)cc3-c3cc(N)cnc3C(F)(F)F)C2=O)ncc1C#N` [Example 230]: the AC50 in assay [1] and in assay [3] was 10 to 1000 nM in each case. For the same compound, the pIC50 in assay [2] is over 8.00.
On to `CCOc1cc([C@H](C)N2CCc3c(cc(CCN4C[C@@H](O)[C@H]4C)cc3-c3cn(C)c(=O)cc3C)C2=O)ncc1C#N` [Example 216], for which the AC50 in assay [1] and in assay [3] was 10 to 1000 nM each time. For the same compound, the pIC50 in assay [2] was over 8.00.
As to `CCOc1cc([C@H](C)N2CCc3c(cc(Cn4ccnc4C)cc3-c3cn(CCO)nc3C)C2=O)ncc1C#N` [Example 271], the AC50 in assay [1] and in assay [3] was 10 to 1000 nM each time. Also, the pIC50 in assay [2] was over 8.00.
Turning to `CCOc1cc([C@H](C)N2CCc3c(cc(CCN(C)CC)cc3-c3cn(C)c(=O)cc3Cl)C2=O)ncc1C#N` [Example 175, (S)-6-(1-(5-(4-chloro-1-methyl-6-oxo-1,6-dihydropyridin-3-yl)-7-(2-(ethyl(methyl)amino)ethyl)-1-oxo-3,4-dihydroisoquinolin-2(1H)-yl)ethyl)-4-ethoxynicotinonitrile], the AC50 in assay [1] and in assay [3] was 10 to 1000 nM throughout. Also, in assay [2], the pIC50 was over 8.00.
With `CCOc1cc([C@H](C)N2CCc3c(cc(CCN(C)CC)cc3-c3cc(C)ncc3Cl)C2=O)ncc1C#N` [Example 166, (S)-6-(1-(5-(5-chloro-2-methylpyridin-4-yl)-7-(2-(ethyl(methyl)amino)ethyl)-1-oxo-3,4-dihydroisoquinolin-2(1H)-yl)ethyl)-4-ethoxynicotinonitrile], the AC50 in assay [1] and in assay [3] was 10 to 1000 nM throughout. Also, in assay [2], the pIC50 was over 8.00.
On to `CNc1nccn1Cc1cc2c(c(-c3cn(C)nc3C)c1)CCN(Cc1ccc(F)c(OC)c1)C2=O` [Example 58, 5-(1,3-dimethyl-1H-pyrazol-4-yl)-2-(4-fluoro-3-methoxybenzyl)-7-((2-(methylamino)-1H-imidazol-1-yl)methyl)-3,4-dihydroisoquinolin-1(2H)-one], for which the AC50 in assay [1] and in assay [3] was 10 to 1000 nM in each case. Besides, the pIC50 in assay [2] was 6.00 to 8.00.
Consider `CNc1nccn1Cc1cc(CN(C)CCF)c2c(c1)C(=O)N([C@@H](C)c1cc(OC)c(F)cn1)CC2` [Example 49, (S)-2-(1-(5-fluoro-4-methoxypyridin-2-yl)ethyl)-5-(((2-fluoroethyl)(methyl)amino)methyl)-7-((2-(methylamino)-1H-imidazol-1-yl)methyl)-3,4-dihydroisoquinolin-1(2H)-one], for which the AC50 in assay [1] and in assay [3] was 10 to 1000 nM each time. Also, in assay [2], the pIC50 was 6.00 to 8.00.

Source of the values: US20220289732A1, “HETEROCYCLIC WDR5 INHIBITORS AS ANTI-CANCER COMPOUNDS” (NOVARTIS AG, priority 2019, published 2022).
